Reference: paper PMC9963659, “Novel 2-Thiouracil-5-Sulfonamide Derivatives: Design, Synthesis, Molecular Docking, and Biological Evaluation as Antioxidants with 15-LOX Inhibition” (Molecules, 2023)

Legend:
[1] = DPPH radical scavenging assay; format: biochemical; conditions: mean ± SEM of three experiments
Experimental: The antioxidant potential of all target compounds (3–9) was determined using DPPH radical scavenging assay in comparison with ascorbic acid (AA) as the control treatment.
The mechanism of antioxidants as DPPH radical scavengers is based on their hydrogen-donation ability as hydrogen atoms or an electron transfer from the compound to the DPPH to form DPPH-H. The results of DPPH reduction are presented in Table 2, Figure 7.
The DPPH scavenging activity of all novel synthesized compounds (3–9) was measured as previously described (see Supplementary Materials).
1-Biological Evaluation Details: a-In-vitro Assays for biological antioxidant Activity
- DPPH scavenging method.
A 96-well plate was filled with 100 µL of the investigated compounds at various concentrations (12.5, 25, 50, 100, and 200 µg/mL ). The plate was then incubated at room temperature for 30 min while being protected from light by adding 100 µL of 100µM DPPH methanolic solution to each well. At a λ517 nm. the solution's absorbance was measured.
The positive control was ascorbic acid, and the negative control was DMSO. According to the following equation, the percentage of DPPH scavenging activity was determined:
% of DPPH scavenging = [(A control -A sample) / A control] x100. where A control is the absorbance of the control reaction (with all reagents except the test compound), and A sample is the absorbance of the test sample. Linear regression analysis was performed to calculate drug concentration showing 50% free radical inhibition activity (IC50). All tests were performed in triplicates. […]

[2] = Hydrogen peroxide scavenging assay; format: biochemical; conditions: mean ± SEM of three experiments
Experimental: H2O2 assay is used to estimate the scavenging power of the target compounds (4–9) to H2O2.
The hydrogen peroxide (H2O2) scavenging activity of all novel synthesized compounds 3–9 was measured as previously reported (see Supplementary Materials).
1-Biological Evaluation Details: a-In-vitro Assays for biological antioxidant Activity […]
Linear regression analysis was performed to calculate drug concentration showing 50% free radical inhibition activity (IC50). All tests were performed in triplicates.
-Scavenging of hydrogen peroxide
In this method, the decay or loss of hydrogen peroxide can be quantified spectrophotometrically at 230 nm when a scavenger is incubated with it. The procedure was applied with a few changes. In phosphate buffered saline, hydrogen […]
peroxide (20 mM) solution was prepared in phosphate buffered saline (PBS, pH 7.4). In order to make different concentrations of 1 ml of the tested substances (3–9) or standards in methanol, 2 ml of hydrogen peroxide solution in PBS was added. After 10 minutes, the absorbance of H2O2 was measured at 230 nm in comparison to an ascorbic acid (AA) reference solution that contained phosphate buffer but no H2O2.
% of H2O2 scavenging = [(A control -A sample) / A control] x100. […]

[3] = Lipid peroxidation assay (FeCl2/H2O2-stimulated linoleic acid peroxidation); format: biochemical; conditions: mean ± SEM of three experiments
[4] = target: T1, Soybean 15-LOX enzyme (Glycine max, UniProt P08170); assay: In vitro 15-lipoxygenase inhibition (Cayman Lipoxygenase Inhibitor Screening Assay Kit); format: biochemical; conditions: for IC50: Soybean 15-LOX, arachidonic acid substrate, mean ± SEM of three experiments
T1 construct: purchased Cayman Chemical 760700
T1 sequence (P08170 1-839): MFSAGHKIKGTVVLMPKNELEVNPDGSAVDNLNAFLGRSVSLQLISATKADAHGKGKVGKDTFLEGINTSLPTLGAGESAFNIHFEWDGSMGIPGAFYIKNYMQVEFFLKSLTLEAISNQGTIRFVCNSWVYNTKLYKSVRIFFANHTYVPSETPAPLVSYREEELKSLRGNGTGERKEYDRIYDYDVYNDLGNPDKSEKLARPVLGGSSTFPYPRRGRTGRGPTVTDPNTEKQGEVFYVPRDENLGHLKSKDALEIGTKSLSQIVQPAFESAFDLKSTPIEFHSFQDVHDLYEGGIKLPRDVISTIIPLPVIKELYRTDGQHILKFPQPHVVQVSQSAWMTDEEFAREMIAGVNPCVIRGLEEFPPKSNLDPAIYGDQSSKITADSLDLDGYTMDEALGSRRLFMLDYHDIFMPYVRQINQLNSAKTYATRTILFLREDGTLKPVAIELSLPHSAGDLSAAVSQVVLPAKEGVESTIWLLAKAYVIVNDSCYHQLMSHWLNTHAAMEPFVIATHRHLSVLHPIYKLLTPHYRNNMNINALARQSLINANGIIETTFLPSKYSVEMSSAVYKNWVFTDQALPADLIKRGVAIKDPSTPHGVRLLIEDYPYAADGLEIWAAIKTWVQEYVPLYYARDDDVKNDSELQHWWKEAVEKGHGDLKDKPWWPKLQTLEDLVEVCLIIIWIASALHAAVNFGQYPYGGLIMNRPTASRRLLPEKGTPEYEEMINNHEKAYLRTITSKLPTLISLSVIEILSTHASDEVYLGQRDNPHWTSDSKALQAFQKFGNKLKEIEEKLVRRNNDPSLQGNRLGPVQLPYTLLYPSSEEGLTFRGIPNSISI
Experimental: 90 µL of 15-LOX was pipetted into a 96-well plate quickly. The test chemical was then dissolved in DMSO in 10 µL portions at concentrations of 2.5 µM, 5.0 µM, and 10 µM and added to each well. Arachidonic acid, a 110 µL substrate, was added to start the reaction, and the plate was shaken for at least five minutes. In order to interrupt enzyme catalysis and advance the reaction, 100 µL of chromogen was added to each well and made in accordance with the manufacturer’s instructions. In blank wells, 100 µL of assay buffer (0.1 M Tris-HCl, pH 7.4) was utilized. […] The solution’s absorbance was determined at λ 490–500 nm. The percentage inhibition was calculated according to the following equation:% inhibition = [(IA − Ainhibitor sample)/IA] × 100(1) where (IA) is the 100% initial activity and (Ainhibitor sample) is the absorbance of the test sample. A dose-response curve was plotted between % inhibition and the drug concentration. The non-linear dose-response curve was used for calculating drug concentration showing 50% enzyme inhibition.

SMILES | DPPH IC50 [1] [µg/mL] | H2O2 IC50 [2] [µg/mL] | Lipid Peroxidation IC50 [3] [µg/mL] | IC50 [4] [µM] | melting point [°C] | 15-LOX inhibitory activity relative to quercetin ([4]; fold that of quercetin) [fold]
Cc1cccc(-c2cc(-c3cccc(NS(=O)(=O)c4c[nH]c(=S)[nH]c4=O)c3)[nH]c(=O)c2C#N)c1 [Compound 6d, N-{3-[5-cyano-4-(3-methylphenyl)-6-oxo-1,6-dihydropyridin-2-yl]phenyl}-4-oxo-2-thioxo-1,2,3,4-tetrahydropyrimidine-5-sulfonamide] | 21.0 ± 0.5 | 28.8 ± 1.05 | 38.0 ± 1.42 | 7.5 ± 0.04 | 282 to 284 | 
N#Cc1c(-c2cccc(Cl)c2)cc(-c2cccc(NS(=O)(=O)c3c[nH]c(=S)[nH]c3=O)c2)[nH]c1=O [Compound 6b, N-{3-[5-cyano-4-(3-chlorophenyl)-6-oxo-1,6-dihydropyridin-2-yl]phenyl}-4-oxo-2-thioxo-1,2,3,4-tetrahydropyrimidine-5-sulfonamide] | 22.0 ± 1.18 | 30.0 ± 1.21 | 40.0 ± 1.63 | 7.6 ± 0.05 | 272 to 274 | 
CNC(=S)NN=C(C)c1cccc(NS(=O)(=O)c2c[nH]c(=S)[nH]c2=O)c1 [Compound 5a, N-{3-[(1E)-N-(methylcarbamothionyl)ethanhydrazonoyl]phenyl}-4-oxo-2-thioxo-1,2,3,4-tetrahydropyrimidine-5-sulfonamide] | 14.50 ± 0.72 | 41.0 ± 1.53 | 90.0 ± 1.45 | 5.79 ± 0.01 | 305 to 307 | 
N#Cc1c(-c2cccc(Cl)c2)cc(-c2cccc(NS(=O)(=O)c3c[nH]c(=S)[nH]c3=O)c2)nc1N [Compound 7b, N-{3-[6-amino-5-cyano-4-(3-chlorophenyl)pyridine-2-yl]phenyl}-4-oxo-2-thioxo-1,2,3,4-tetrahydropyrimidine-5-sulfonamides] | 19.50 ± 1.06 | 25.0 ± 1.35 | 37.3 ± 1.3 | 6.7 ± 0.01 | 257 to 259 | 
COc1ccc(NC(=S)NN=C(C)c2cccc(NS(=O)(=O)c3c[nH]c(=S)[nH]c3=O)c2)cc1 [Compound 5c, N-{3-[(1E)-N-(4-methoxycarbamothionyl)ethanhydrazonoyl]phenyl}-4-oxo-2-thioxo-1,2,3,4-tetrahydropyrimidine-5-sulfonamides] | 9.0 ± 1.10 | 45.05 ± 1.34 | 82.0 ± 1.40 | 5.5 ± 0.02 | 307 to 309 | 
N#Cc1c(-c2cccc([N+](=O)[O-])c2)cc(-c2cccc(NS(=O)(=O)c3c[nH]c(=S)[nH]c3=O)c2)nc1N [Compound 7a, N-{3-[6-amino-5-cyano-4-(3-nitrophenyl)pyridine-2-yl]phenyl}-4-oxo-2-thioxo-1,2,3,4-tetrahydropyrimidine-5-sulfonamides] | 25.5 ± 1.16 | 26.0 ± 1.28 | 37.6 ± 1.2 | 6.95 ± 0.07 | 251 to 253 | 
Cc1cccc(C=NNc2nc(-c3cccc(NS(=O)(=O)c4c[nH]c(=S)[nH]c4=O)c3)cs2)c1 [Compound 9d, N-(3-{2-[(2E)-2(3-methylbenzylidene)hydrazine]-1,3-thiazol-4-yl}phenyl)-4-oxo-thioxo-1,2,3,4-tetrahydropyrimidine-5-sulfonamides] | 7.55 ± 1.70 | 15.0 ± 0.89 | 20.0 ± 1.56 | 2.5 ± 0.03 | 326 to 328 | 
N#Cc1c(-c2cccc(F)c2)cc(-c2cccc(NS(=O)(=O)c3c[nH]c(=S)[nH]c3=O)c2)nc1N [Compound 7c, N-{3-[6-amino-5-cyano-4-(3-fluorophenyl)pyridine-2-yl]phenyl}-4-oxo-2-thioxo-1,2,3,4-tetrahydropyrimidine-5-sulfonamides] | 17.7 ± 1.4 | 24.0 ± 1.40 | 36.9 ± 1.72 | 6.91 ± 0.02 | 268 to 270 | 
O=c1[nH]c(=S)[nH]cc1S(=O)(=O)Nc1cccc(-c2csc(NN=Cc3cccc([N+](=O)[O-])c3)n2)c1 [Compound 9a, N-(3-{2-[(2E)-2(3-nitrobenzylidene)hydrazine]-1,3-thiazol-4-yl}phenyl)-4-oxo-thioxo-1,2,3,4-tetrahydropyrimidine-5-sulfonamides] | 15.0 ± 1.25 | 20.0 ± 1.40 | 22.0 ± 1.40 | 2.9 ± 0.08 | 316 to 318 | 
O=c1[nH]c(=S)[nH]cc1S(=O)(=O)Nc1cccc(-c2csc(NN=Cc3cccc(F)c3)n2)c1 [Compound 9c, N-(3-{2-[(2E)-2(3-fluorobenzylidene)hydrazine]-1,3-thiazol-4-yl}phenyl)-4-oxo-thioxo-1,2,3,4-tetrahydropyrimidine-5-sulfonamides] | 10.0 ± 0.83 | 16.0 ± 1.20 | 20.5 ± 1.48 | 1.95 ± 0.06 | 317 to 319 | 1.84
